Laboratory results: PubChem BioAssay (NCI)
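Protocol summary: plate cells (96-well), add compound at 5 concentrations, incubate 48 h, interpolate endpoints linearly. The concentration for full growth arrest is given as TGI.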

Key:
Test in all cases: DTP human tumour cell line panel, 48 h
[1] = tested on: KM12 colon
[2] = tested on: A549 NSCLC
[3] = tested on: SN12C renal
[4] = tested on: NCI-H522 lung
[5] = tested on: SF-268 CNS
[6] = tested on: U251 CNS
[7] = tested on: A498 renal
[8] = tested on: COLO 205 colon
[9] = tested on: HOP-62 NSCLC
[10] = tested on: NCI-H460 lung
[11] = tested on: UACC-62 melanoma
[12] = tested on: CAKI-1 renal
[13] = tested on: IGROV1 ovarian
[14] = tested on: CCRF-CEM leukemia
[15] = tested on: MALME-3M melanoma
[16] = tested on: DMS 273 small cell lung
[17] = tested on: DMS 114 small cell lung
[18] = tested on: RXF 393 renal
[19] = tested on: SF-295 CNS
[20] = tested on: OVCAR-3 ovarian
[21] = tested on: M19-MEL melanoma
[22] = tested on: HCT-116 colon
[23] = tested on: HCT-15 colon
[24] = tested on: TK-10 renal
[25] = tested on: SK-MEL-5 melanoma
[26] = tested on: MOLT-4 leukemia
[27] = tested on: M14 melanoma
[28] = tested on: LXFL 529 NSCLC
[29] = tested on: UACC-257 melanoma
[30] = tested on: LOX IMVI melanoma
[31] = tested on: SNB-19 CNS
[32] = tested on: RPMI-8226 leukemia
[33] = tested on: DLD-1 colon
[34] = tested on: OVCAR-8 ovarian
[35] = tested on: ACHN renal
[36] = tested on: SR leukemia
[37] = tested on: SK-OV-3 ovarian
[38] = tested on: HOP-92 NSCLC
[39] = tested on: HCC-2998 colon
[40] = tested on: OVCAR-4 ovarian
[41] = tested on: SK-MEL-28 melanoma
[42] = tested on: OVCAR-5 ovarian
[43] = tested on: SNB-75 CNS
[44] = tested on: KM20L2 colon
[45] = tested on: K-562 leukemia
[46] = tested on: HOP-18 NSCLC
[47] = tested on: SNB-78 CNS
[48] = tested on: RXF-631 renal
[49] = tested on: HT29 colon
[50] = tested on: EKVX NSCLC
[51] = tested on: NCI-H23 lung
[52] = tested on: NCI-H226 lung
[53] = tested on: 786-0 renal
[54] = tested on: UO-31 renal
[55] = tested on: HL-60(TB) leukemia
[56] = tested on: SK-MEL-2 melanoma
[57] = tested on: SW-620 colon
[58] = tested on: SF-539 CNS
[59] = tested on: XF 498 CNS

Measured: TGI

CCCCCCCCCCCCCCCCOCC(CN(C)CCN(C)C)OCCCCCCCCCCCCCCCC (configuration not stated)
not listed: [58] | [59]
> 100 µM: all other assays above

O=C1Nc2cc(Cl)ccc2N=CC1NC(=O)C(c1ccccc1)c1ccccc1Cl (configuration not stated)
not listed: [36] | [59]
> 100 µM: all other assays above

O=c1oc2ccccc2n1P(=O)(n1c(=O)oc2ccccc21)n1c(=O)oc2ccccc21
not listed: [23] | [25] | [32] | [34] | [46] | [53]
> 100 µM: all other assays above
